The values that follow come from patent US20230036854A1, “HETEROCYCLIC SPIRO-COMPOUNDS AS AM2 RECEPTOR INHIBITORS” (THE UNIVERSITY OF SHEFFIELD, priority 2018, published 2023).

Each structure is given as a SMILES string.

For this assay, the target named is T1, AM2 receptor (1321N1 cells transfected with CALCRL+RAMP3) (Homo sapiens, UniProt O60896+Q16602).
T1 construct: host or cells: 1321N1 cells
T1 sequence (Q16602 23-461): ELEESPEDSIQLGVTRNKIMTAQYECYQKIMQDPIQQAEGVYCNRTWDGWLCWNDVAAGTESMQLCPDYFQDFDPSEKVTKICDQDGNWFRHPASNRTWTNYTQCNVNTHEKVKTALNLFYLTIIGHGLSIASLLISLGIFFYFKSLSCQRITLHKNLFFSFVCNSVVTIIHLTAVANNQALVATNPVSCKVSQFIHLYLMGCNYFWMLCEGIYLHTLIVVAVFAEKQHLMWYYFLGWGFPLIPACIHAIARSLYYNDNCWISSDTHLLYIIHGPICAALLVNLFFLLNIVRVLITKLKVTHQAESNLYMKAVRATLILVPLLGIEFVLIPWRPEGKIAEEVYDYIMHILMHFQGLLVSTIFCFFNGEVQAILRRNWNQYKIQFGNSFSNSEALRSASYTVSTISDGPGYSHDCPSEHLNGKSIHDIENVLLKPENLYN
T1 sequence (O60896 24-148): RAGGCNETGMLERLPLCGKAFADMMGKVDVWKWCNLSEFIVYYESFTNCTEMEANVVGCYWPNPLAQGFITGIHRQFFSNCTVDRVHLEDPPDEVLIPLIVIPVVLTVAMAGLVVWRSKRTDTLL
Put plainly: AM2 receptor inhibition, LANCE cAMP agonist-antagonist competition assay. In kind it is cell-based. The conditions noted are these: inhibition of AM induced cAMP activation, read-out: AM2 D2 protocol: pIC50 (converted). A digest of the protocol: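 cAMP was quantified by LANCE TR-FRET after an EC50 challenge with adrenomedullin (15 min, room temperature) in CALCRL+RAMP3-transfected 1321N1 cells (2500/well) that had first been exposed to compound for 30 min. Buffer was pH 7.4 HBSS with HEPES and BSA. Forskolin defined 100% stimulation and vehicle 0%.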
For orientation: In TR-FRET formats the signal depends on donor and acceptor labels being close together.
As for `CNCc1ccccc1CN(CC(=O)Nc1ccc2c(c1)CC1(C2)C(=O)Nc2ncccc21)C(=O)C1(C)CCN(C(=O)N2CCCC2)CC1` (stereo not shown) [Example 51, 4-Methyl-N-[[2-(methylaminomethyl)phenyl]methyl]-N-[2-oxo-2-[(2-oxospiro[1H-pyrrolo[2,3-b]pyridine-3,2′-indane]-5′-yl)amino]ethyl]-1-(pyrrolidine-1-carbonyl)piperidine-4-carboxamide], the IC50 is 2.34 nM.
On to `CNCc1ccccc1CN(CC(=O)Nc1ccc2c(c1)C[C@@]1(C2)C(=O)Nc2ncccc21)C(=O)C1(C)CCN(C(=O)N(C)C)CC1` [Example 53, (R)—N1,N1,4-Trimethyl-N4-(2-((methylamino)methyl)benzyl)-N4-(2-oxo-2-((2′-oxo-1,1′,2′,3-tetrahydrospiro[indene-2,3′-pyrrolo[2,3-b]pyridin]-5-yl)amino)ethyl)piperidine-1,4-dicarboxamide], for which the IC50 was 14.1 nM.
Under `CNCc1ccccc1CN(CC(=O)Nc1ccc2c(c1)C[C@@]1(C2)C(=O)Nc2ncccc21)C(=O)C1(C)CCN(C(=O)N2CCC2)CC1` [Example 54, (R)-1-(Azetidine-1-carbonyl)-4-methyl-N-(2-((methylamino)methyl)benzyl)-N-(2-oxo-2-((2′-oxo-1,1′,2′,3-tetrahydrospiro[indene-2,3′-pyrrolo[2,3-b]pyridin]-5-yl)amino)ethyl)piperidine-4-carboxamide] stands 3.8 nM; under `CNCc1ccccc1CN(CC(=O)Nc1ccc2c(c1)C[C@@]1(C2)C(=O)Nc2ncccc21)C(=O)C1(C)CCN(C(=O)N2CCNCC2)CC1` [Example 56, (R)-4-Methyl-N-(2-((methylamino)methyl)benzyl)-N-(2-oxo-2-((2′-oxo-1,1′,2′,3-tetrahydrospiro[indene-2,3′-pyrrolo[2,3-b]pyridin]-5-yl)amino)ethyl)-1-(piperazine-1-carbonyl)piperidine-4-carboxamide], 13.2 nM.
On to `CNCc1ccccc1CN(CC(=O)Nc1ccc2c(c1)C[C@@]1(C2)C(=O)Nc2ncccc21)C(=O)C1(C)CCN(C(=O)N2CCCC2)CC1` [Example 57, (R)-4-Methyl-N-(2-((methylamino)methyl)benzyl)-N-(2-oxo-2-((2′-oxo-1,1′,2′,3-tetrahydrospiro[indene-2,3′-pyrrolo[2,3-b]pyridin]-5-yl)amino)ethyl)-1-(pyrrolidine-1-carbonyl)piperidine-4-carboxamide], for which the IC50 is 3.63 nM.
Consider `CNCc1ccccc1CN(CC(=O)Nc1ccc2c(c1)C[C@@]1(C2)C(=O)Nc2ncccc21)C(=O)C1(C)CCN(C(C)=N)CC1` [Example 58, (R)-1-(1-Iminoethyl)-4-methyl-N-(2-((methylamino)methyl)benzyl)-N-(2-oxo-2-((2′-oxo-1,1′,2′,3-tetrahydrospiro[indene-2,3′-pyrrolo[2,3-b]pyridin]-5-yl)amino)ethyl)piperidine-4-carboxamide], for which the IC50 was 2.34 nM.
As for `CNCc1ccccc1CN(CC(=O)Nc1ccc2c(c1)C[C@@]1(C2)C(=O)Nc2ncccc21)C(=O)C1(C)CCN(c2cccnn2)CC1` [Example 59, (R)-4-Methyl-N-(2-((methylamino)methyl)benzyl)-N-(2-oxo-2-((2′-oxo-1,1′,2′,3-tetrahydrospiro[indene-2,3′-pyrrolo[2,3-b]pyridin]-5-yl)amino)ethyl)-1-(pyridazin-3-yl)piperidine-4-carboxamide], the IC50 was 49 nM.
Regarding `CNCc1ccccc1CN(CC(=O)Nc1ccc2c(c1)C[C@@]1(C2)C(=O)Nc2ncccc21)C(=O)C1(C)CCN(c2ncccn2)CC1` [Example 60], the IC50 is 38 nM.
For `CNCc1ccccc1CN(CC(=O)Nc1ccc2c(c1)C[C@@]1(C2)C(=O)Nc2ncccc21)C(=O)C1(C)CCN(c2ccncn2)CC1` [Example 61], the IC50 was 2.14 nM.
As for `CNCc1ccccc1CN(CC(=O)Nc1ccc2c(c1)C[C@@]1(C2)C(=O)Nc2ncccc21)C(=O)C1(C)CCN(c2ccccn2)CC1` [Example 62], the IC50 was 77.6 nM.
Turning to `CNCc1ccccc1CN(CC(=O)Nc1ccc2c(c1)C[C@@]1(C2)C(=O)Nc2ncccc21)C(=O)C1(C)CCN(c2ccccc2)CC1` [Example 63, (R)-4-Methyl-N-(2-((methylamino)methyl)benzyl)-N-(2-oxo-2-((2′-oxo-1,1′,2′,3-tetrahydrospiro[indene-2,3′-pyrrolo[2,3-b]pyridin]-5-yl)amino)ethyl)-1-phenylpiperidine-4-carboxamide], the IC50 is 14.5 nM.
Regarding `CNCc1ccccc1CN(C(=O)C1(C)CCN(C(C)=O)CC1)[C@@H](C)C(=O)Nc1ccc2c(c1)C[C@@]1(C2)C(=O)Nc2ncccc21` [Example 66, 1-Acetyl-4-methyl-N-(2-((methylamino)methyl)benzyl)-N—((S)-1-oxo-1-(((R)-2′-oxo-1,1′,2′,3-tetrahydrospiro[indene-2,3′-pyrrolo[2,3-b]pyridin]-5-yl)amino)propan-2-yl)piperidine-4-carboxamide], the IC50 is 457 nM.
In the case of `CCC1(C(=O)N(CC(=O)Nc2ccc3c(c2)C[C@@]2(C3)C(=O)Nc3ncccc32)Cc2ccccc2CNC)CCNCC1` [Example 67, (R)-4-Ethyl-N-(2-((methylamino)methyl)benzyl)-N-(2-oxo-2-((2′-oxo-1,1′,2′,3-tetrahydrospiro[indene-2,3′-pyrrolo[2,3-b]pyridin]-5-yl)amino)ethyl)piperidine-4-carboxamide], the IC50 was 0.575 nM.
Regarding `CCC1(C(=O)N(CC(=O)Nc2ccc3c(c2)C[C@@]2(C3)C(=O)Nc3ncccc32)Cc2ccccc2CNC)CCN(C(C)=O)CC1` [Example 68, (R)-1-Acetyl-4-ethyl-N-(2-((methylamino)methyl)benzyl)-N-(2-oxo-2-((2′-oxo-1,1′,2′,3-tetrahydrospiro[indene-2,3′-pyrrolo[2,3-b]pyridin]-5-yl)amino)ethyl)piperidine-4-carboxamide], the IC50 is 1.41 nM.
Consider `CCC1(C(=O)N(CC(=O)Nc2ccc3c(c2)C[C@@]2(C3)C(=O)Nc3ncccc32)Cc2ccccc2CNC)CCN(C(=O)C(C)(C)C)CC1` [Example 69, 1-(2,2-Dimethylpropanoyl)-4-ethyl-N-[[2-(methylaminomethyl)phenyl]methyl]-N-[2-oxo-2-[[(3R)-2-oxospiro[1H-pyrrolo[2,3-b]pyridine-3,2′-indane]-5′-yl]amino]ethyl]piperidine-4-carboxamide], for which the IC50 was 30.2 nM.
For the molecule `CCC1(C(=O)N(CC(=O)Nc2ccc3c(c2)C[C@@]2(C3)C(=O)Nc3ncccc32)Cc2ccccc2CNC)CCN(C(=O)c2ccn(C)n2)CC1` [Example 70, (R)-4-Ethyl-1-(1-methyl-1H-pyrazole-3-carbonyl)-N-(2-((methylamino)methyl)benzyl)-N-(2-oxo-2-((2′-oxo-1,1′,2′,3-tetrahydrospiro[indene-2,3′-pyrrolo[2,3-b]pyridin]-5-yl)amino)ethyl)piperidine-4-carboxamide], the IC50 is 2.24 nM.
Under `CCC1(C(=O)N(CC(=O)Nc2ccc3c(c2)C[C@@]2(C3)C(=O)Nc3ncccc32)Cc2ccccc2CNC)CCN(C(=O)c2cc(C)n[nH]2)CC1` [Example 71, (R)-4-Ethyl-1-(3-methyl-1H-pyrazole-5-carbonyl)-N-(2-((methylamino)methyl)benzyl)-N-(2-oxo-2-((2′-oxo-1,1′,2′,3-tetrahydrospiro[indene-2,3′-pyrrolo[2,3-b]pyridin]-5-yl)amino)ethyl)piperidine-4-carboxamide] stands 8.51 nM.
As for `CCC1(C(=O)N(CC(=O)Nc2ccc3c(c2)C[C@@]2(C3)C(=O)Nc3ncccc32)Cc2ccccc2CNC)CCN(C(=O)C2CC2)CC1` [Example 72, (R)-1-(Cyclopropanecarbonyl)-4-ethyl-N-(2-((methylamino)methyl)benzyl)-N-(2-oxo-2-((2′-oxo-1,1′,2′,3-tetrahydrospiro[indene-2,3′-pyrrolo[2,3-b]pyridin]-5-yl)amino)ethyl)piperidine-4-carboxamide], the IC50 was 8.71 nM.
The same measure for `CCC1(C(=O)N(CC(=O)Nc2ccc3c(c2)C[C@@]2(C3)C(=O)Nc3ncccc32)Cc2ccccc2CNC)CCN(C(=O)C(C)C)CC1` [Example 73, (R)-4-Ethyl-1-isobutyryl-N-(2-((methylamino)methyl)benzyl)-N-(2-oxo-2-((2′-oxo-1,1′,2′,3-tetrahydrospiro[indene-2,3′-pyrrolo[2,3-b]pyridin]-5-yl)amino)ethyl)piperidine-4-carboxamide]: 14.1 nM.
Regarding `CCC1(C(=O)N(CC(=O)Nc2ccc3c(c2)C[C@@]2(C3)C(=O)Nc3ncccc32)Cc2ccccc2CNC)CCN(C(=O)COCCOCCOC)CC1` [Example 74, (R)-4-Ethyl-1-(2-(2-(2-methoxyethoxy)ethoxy)acetyl)-N-(2-((methylamino)methyl)benzyl)-N-(2-oxo-2-((2′-oxo-1,1′,2′,3-tetrahydrospiro[indene-2,3′-pyrrolo[2,3-b]pyridin]-5-yl)amino)ethyl)piperidine-4-carboxamide], the IC50 is 8.71 nM.
`CCC1(C(=O)N(CC(=O)Nc2ccc3c(c2)C[C@@]2(C3)C(=O)Nc3ncccc32)Cc2ccccc2CNC)CCN(C(=O)C2CCCC2)CC1` [Example 75, (R)-1-(Cyclopentanecarbonyl)-4-ethyl-N-(2-((methylamino)methyl)benzyl)-N-(2-oxo-2-((2′-oxo-1,1′,2′,3-tetrahydrospiro[indene-2,3′-pyrrolo[2,3-b]pyridin]-5-yl)amino)ethyl)piperidine-4-carboxamide]: the IC50 is 5.75 nM.
With `CCC1(C(=O)N(CC(=O)Nc2ccc3c(c2)C[C@@]2(C3)C(=O)Nc3ncccc32)Cc2ccccc2CNC)CCN(C(=O)c2ccc(F)cn2)CC1` [Example 76, (R)-4-Ethyl-1-(5-fluoropicolinoyl)-N-(2-((methylamino)methyl)benzyl)-N-(2-oxo-2-((2′-oxo-1,1′,2′,3-tetrahydrospiro[indene-2,3′-pyrrolo[2,3-b]pyridin]-5-yl)amino)ethyl)piperidine-4-carboxamide], the IC50 is 37.2 nM.
